Experiments:
[1] = target: T1, Ba/F3 cells CD74-ROS1 G2032R (Homo sapiens, UniProt P08922, G2032R); assay: Ba/F3 cell proliferation assay, CD74-ROS1 G2032R; type: cell-based; conditions: 72 hours, CellTiter-Glo
T1 construct: fusion of the C-terminus of ROS1 with the N-terminus of various partner proteins; host or cells: Ba/F3 (RIKEN), retroviral pMSCV-puro; the other entry of the earlier key: CD74 (P04233, HLA class II histocompatibility antigen gamma chain)
In short: (§1)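 IL-3-independent Ba/F3 CD74-ROS1 lines, puromycin-selected monoclones; 1,000 cells/well, plated 1 d before dosing; 3-fold serial dilutions, 72 h; CellTiter-Glo luminescence; IC50 by 4-parameter logistic regression.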

[2] = target: T2, ROS1-G2032R (Homo sapiens, UniProt P08922, G2032R); assay: Biochemical kinase assay, ROS1-G2032R kinase domain; conditions: apparent inhibitory constant, Morrison equation; ATP 2 mM in substrate solution; read-out: ROS1-G2032R Ki^app
T2 construct: purchased SignalChem R14-12BG
T2 sequence (P08922 1945-2222 G2032R limits assumed): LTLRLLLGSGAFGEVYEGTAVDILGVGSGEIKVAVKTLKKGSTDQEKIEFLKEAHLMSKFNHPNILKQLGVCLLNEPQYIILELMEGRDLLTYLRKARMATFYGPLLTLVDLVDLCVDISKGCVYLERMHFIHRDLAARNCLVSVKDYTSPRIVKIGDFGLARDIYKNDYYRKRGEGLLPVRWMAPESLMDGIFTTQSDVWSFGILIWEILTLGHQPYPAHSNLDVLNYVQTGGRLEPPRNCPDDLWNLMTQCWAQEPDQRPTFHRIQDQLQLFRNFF
Experimental: (§2) First, 250 nL of compound dissolved in DMSO (100-fold of the desired concentration) was dispensed into a 384-well plate. A 12.5 μL substrate solution containing ATP (2 mM) and fluorogenic phosphorylation substrate AQT0101 (26 μM for ALK and ROS1, AssayQuant) or AQT0104 (26 μM for TRKA, AssayQuant) in buffer (50 mM HEPES pH 7.5, 0.01% Brij-35, 0.5 mM EGTA, 10 mM MgCl2) was added and mixed thoroughly. […] The plate was sealed and read by SpectraMax Paradigm at λ=485 nm every 2 minutes for 120 minutes at 30° C. Initial rates of reaction (v) were calculated from the change in fluorescence intensity over time during the initial, linear portion of the reaction. Finally, apparent inhibitory constants (Ki^app) were determined from regression of v and I (inhibitor concentration) to Morrison Equation (E=enzyme concentration): […]

[3] = target: T3, ROS1-wt (Homo sapiens, UniProt P08922); assay: Biochemical kinase assay, ROS1-wt kinase domain; conditions: apparent inhibitory constant, Morrison equation; ATP 2 mM in substrate solution; read-out: ROS1-wt Ki^app
T3 construct: purchased Carna 08-163
T3 sequence (P08922 1945-2222 limits assumed): as the sequence (P08922 1945-2222 G2032R limits assumed) above, with R88G counted along it
Experimental: as §2

[4] = tested on: TPM3-NTRK1-wt IC50 / primary target IC50 (e.g. CD74-ROS1-wt); assay: TRKA selectivity in Ba/F3 cells (TRKA potency divided by primary target potency); type: cell-based; conditions: for TPM3-NTRK1-wt/CD74-ROS1-G2032R selectivity ratio: TRKA potency / CD74-ROS1-G2032R potency; for TPM3-NTRK1-wt/CD74-ROS1-wt selectivity ratio: TRKA potency / CD74-ROS1-wt potency; for TPM3-NTRK1-wt/EML4-ALK-L1196M-G1202R selectivity ratio: TRKA potency / EML4-ALK-L1196M-G1202R potency; for TPM3-NTRK1-wt/EML4-ALK-wt selectivity ratio: TRKA potency / EML4-ALK-wt potency
Experimental: TRKA selectivity was calculated by dividing a compound's TRKA potency by its primary target potency (e.g. TPM3-NTRK1-wt IC50/CD74-ROS1-wt IC50). Compound selectivity can be interpreted by binning ratio values: bin A for very high selectivity, ratio >30-fold; bin B for high selectivity, ratio >10-fold; bin C for moderate selectivity, ratio ≥1; and bin D for low selectivity, ratio <1. […] (nd=not determined).

[5] = target: T4, Ba/F3 cells EML4-ALK wt (variant 1) (Homo sapiens, UniProt Q9UM73); assay: Ba/F3 cell proliferation assay, EML4-ALK wt (variant 1); type: cell-based; conditions: 72 hours, CellTiter-Glo
T4 construct: echinoderm microtubule-associated protein-like 4 (EML4) gene and the ALK tyrosine kinase domain; host or cells: Ba/F3 (RIKEN), retroviral pMSCV-puro; the other entry of the earlier key: EML4 (Q9HC35, Echinoderm microtubule-associated protein-like 4)
T4 sequence (Q9UM73 with tags, fused parts or gaps): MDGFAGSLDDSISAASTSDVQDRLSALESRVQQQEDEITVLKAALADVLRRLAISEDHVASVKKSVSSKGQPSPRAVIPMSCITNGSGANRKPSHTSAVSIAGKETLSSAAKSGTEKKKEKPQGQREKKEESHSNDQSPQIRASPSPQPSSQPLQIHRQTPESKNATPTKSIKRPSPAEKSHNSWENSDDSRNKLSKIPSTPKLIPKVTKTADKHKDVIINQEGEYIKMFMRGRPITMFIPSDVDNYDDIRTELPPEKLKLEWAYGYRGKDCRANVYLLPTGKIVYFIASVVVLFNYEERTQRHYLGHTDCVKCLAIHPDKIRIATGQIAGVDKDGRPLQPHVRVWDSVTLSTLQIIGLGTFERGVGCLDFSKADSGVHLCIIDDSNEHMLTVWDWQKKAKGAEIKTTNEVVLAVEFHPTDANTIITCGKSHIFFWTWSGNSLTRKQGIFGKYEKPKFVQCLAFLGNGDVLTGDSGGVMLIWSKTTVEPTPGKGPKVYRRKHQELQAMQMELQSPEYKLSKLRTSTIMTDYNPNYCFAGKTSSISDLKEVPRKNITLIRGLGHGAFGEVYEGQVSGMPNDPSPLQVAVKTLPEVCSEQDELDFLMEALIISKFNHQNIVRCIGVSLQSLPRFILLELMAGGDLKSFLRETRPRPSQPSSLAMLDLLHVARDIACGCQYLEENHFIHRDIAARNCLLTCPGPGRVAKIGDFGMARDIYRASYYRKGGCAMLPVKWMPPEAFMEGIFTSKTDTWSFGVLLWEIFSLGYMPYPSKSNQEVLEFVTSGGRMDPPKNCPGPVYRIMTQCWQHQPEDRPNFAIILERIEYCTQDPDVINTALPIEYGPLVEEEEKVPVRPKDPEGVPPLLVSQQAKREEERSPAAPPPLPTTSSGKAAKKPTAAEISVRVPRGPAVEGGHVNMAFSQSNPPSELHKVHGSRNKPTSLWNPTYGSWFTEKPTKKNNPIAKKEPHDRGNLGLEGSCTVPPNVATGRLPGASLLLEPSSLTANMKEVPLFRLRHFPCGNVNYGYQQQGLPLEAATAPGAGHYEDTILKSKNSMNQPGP
In short: (§3)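 IC50 values come from four-parameter logistic regression of CellTiter-Glo luminescence after 72 h exposure to 3-fold serial dilutions. Cells are Ba/F3 transformed by retroviral fusion-kinase constructs, grown without IL-3 under puromycin, plated at 1,000 per well a day before dosing.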

[6] = target: T5, Ba/F3 cells CD74-ROS1 wild-type (wt) (Homo sapiens, UniProt P08922); assay: Ba/F3 cell proliferation assay, CD74-ROS1 wild-type; type: cell-based; conditions: 72 hours, CellTiter-Glo
T5 construct: fusion of the C-terminus of ROS1 with the N-terminus of various partner proteins; host or cells: Ba/F3 (RIKEN), retroviral pMSCV-puro; the other entry of the earlier key: CD74 (P04233, HLA class II histocompatibility antigen gamma chain)
T5 sequence (P08922 1883-2347 limits assumed): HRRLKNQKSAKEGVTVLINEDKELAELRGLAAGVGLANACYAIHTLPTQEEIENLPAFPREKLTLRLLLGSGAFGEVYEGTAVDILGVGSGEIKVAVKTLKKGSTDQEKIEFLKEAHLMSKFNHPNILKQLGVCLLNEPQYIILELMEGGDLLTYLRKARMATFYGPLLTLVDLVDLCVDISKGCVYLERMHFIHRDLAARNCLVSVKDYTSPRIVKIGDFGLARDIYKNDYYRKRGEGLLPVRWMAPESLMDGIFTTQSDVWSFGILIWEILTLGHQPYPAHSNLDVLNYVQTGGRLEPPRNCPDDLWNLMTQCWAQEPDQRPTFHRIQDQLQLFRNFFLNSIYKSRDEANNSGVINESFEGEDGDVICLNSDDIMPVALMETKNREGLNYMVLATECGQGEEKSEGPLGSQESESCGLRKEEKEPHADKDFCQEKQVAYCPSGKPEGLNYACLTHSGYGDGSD
In short: as §1

[7] = target: T6, ALK-wt (Homo sapiens, UniProt Q9UM73); assay: Biochemical kinase assay, ALK-wt kinase domain; conditions: apparent inhibitory constant, Morrison equation; ATP 2 mM in substrate solution; read-out: ALK-wt Ki^app
T6 construct: purchased Carna 08-518
T6 sequence (Q9UM73 1116-1392 limits assumed): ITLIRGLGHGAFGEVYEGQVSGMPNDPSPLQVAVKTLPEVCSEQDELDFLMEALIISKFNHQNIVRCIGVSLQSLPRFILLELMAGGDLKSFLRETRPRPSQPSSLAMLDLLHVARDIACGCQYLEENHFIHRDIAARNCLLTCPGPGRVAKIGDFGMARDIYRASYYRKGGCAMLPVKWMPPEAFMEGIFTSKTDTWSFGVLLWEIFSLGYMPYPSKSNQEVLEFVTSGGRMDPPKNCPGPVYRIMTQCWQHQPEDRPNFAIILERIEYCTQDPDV
Experimental: (§4) First, 250 nL of compound dissolved in DMSO (100-fold of the desired concentration) was dispensed into a 384-well plate. A 12.5 μL substrate solution containing ATP (2 mM) and fluorogenic phosphorylation substrate AQT0101 (26 μM for ALK and ROS1, AssayQuant) or AQT0104 (26 μM for TRKA, AssayQuant) in buffer (50 mM HEPES pH 7.5, 0.01% Brij-35, 0.5 mM EGTA, 10 mM MgCl2) was added and mixed thoroughly. Then, a 12.5 μL kinase solution containing ALK-wt (1.5 nM, Carna, 08-518), ALK ALK L1196M/G1202R (3 nM, SignalChem, A19-12NG), ROS1-wt (0.6 nM, Carna, 08-163), ROS1-G2032R (0.5 nM, SignalChem, R14-12BG), or TRKA-wt (1 nM, BPS Bio, 40280) kinase domains in buffer ([…] HEPES pH 7.5, 0.01% Brij-35, 2% glycerol, 0.4 mg/mL BSA, 0.5 mM EGTA, and 10 mM MgCl2) was added and mixed thoroughly. The plate was sealed and read by SpectraMax Paradigm at λ=485 nm every 2 minutes for 120 minutes at 30° C. Initial rates of reaction (v) were calculated from the change in fluorescence intensity over time during the initial, linear portion of the reaction. Finally, apparent inhibitory constants (Ki^app) were determined from regression of v and I (inhibitor concentration) to Morrison Equation (E=enzyme concentration): […]

[8] = target: T7, Ba/F3 cells TPM3-TRKA (Homo sapiens, UniProt P04629); assay: Ba/F3 cell proliferation assay, TPM3-TRKA; type: cell-based; conditions: 72 hours, CellTiter-Glo, read-out: TPM3-NTRK1-wt IC50
T7 construct: host or cells: Ba/F3 (RIKEN), retroviral pMSCV-puro; the other entry of the earlier key: TPM3 (P06753, Tropomyosin alpha-3 chain)
T7 sequence (P04629 510-796 limits assumed): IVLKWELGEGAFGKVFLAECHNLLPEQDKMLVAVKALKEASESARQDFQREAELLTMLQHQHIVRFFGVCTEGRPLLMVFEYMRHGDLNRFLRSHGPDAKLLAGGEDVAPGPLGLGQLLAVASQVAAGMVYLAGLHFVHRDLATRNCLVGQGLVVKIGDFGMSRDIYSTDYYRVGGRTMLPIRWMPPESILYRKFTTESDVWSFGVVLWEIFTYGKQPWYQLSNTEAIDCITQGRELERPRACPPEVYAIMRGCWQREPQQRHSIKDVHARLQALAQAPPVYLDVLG
In short: as §3

[9] = target: T8, TRKA-wt (Homo sapiens, UniProt P04629); assay: Biochemical kinase assay, TRKA-wt kinase domain; conditions: apparent inhibitory constant, Morrison equation; ATP 2 mM in substrate solution; read-out: TRKA-wt Ki^app
T8 construct: or TRKA-wt (1 nM, BPS Bio, 40280) kinase domains in buffer; purchased BPS Bio 40280
T8 sequence (P04629 510-781 limits assumed): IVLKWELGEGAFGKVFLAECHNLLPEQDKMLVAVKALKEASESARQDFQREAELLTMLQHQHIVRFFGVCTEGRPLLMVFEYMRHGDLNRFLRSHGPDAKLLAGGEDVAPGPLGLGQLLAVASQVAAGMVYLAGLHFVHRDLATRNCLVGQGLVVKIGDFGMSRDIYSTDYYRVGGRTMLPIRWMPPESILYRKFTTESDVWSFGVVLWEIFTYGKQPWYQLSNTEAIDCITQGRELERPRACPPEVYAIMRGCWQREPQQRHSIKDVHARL
Experimental: as §4

[10] = target: T9, ALK L1196M/G1202R (Homo sapiens, UniProt Q9UM73, G1202R/L1196M); assay: Biochemical kinase assay, ALK L1196M/G1202R kinase domain; conditions: apparent inhibitory constant, Morrison equation; ATP 2 mM in substrate solution; read-out: ALK-L1196M-G1202R Ki^app
T9 construct: purchased SignalChem A19-12NG
T9 sequence (Q9UM73 1116-1392 L1196M/G1202R limits assumed): as the sequence (Q9UM73 1116-1392 limits assumed) above, with L81M, G87R counted along it
Experimental: as §4

[11] = target: T10, Ba/F3 cells EML4-ALK L1196M/G1202R (variant 1) (Homo sapiens, UniProt Q9UM73, G1202R/L1196M); assay: Ba/F3 cell proliferation assay, EML4-ALK L1196M/G1202R (variant 1); type: cell-based; conditions: 72 hours, CellTiter-Glo
T10 construct: echinoderm microtubule-associated protein-like 4 (EML4) gene and the ALK tyrosine kinase domain; host or cells: Ba/F3 (RIKEN), retroviral pMSCV-puro; the other entry of the earlier key: EML4 (Q9HC35, Echinoderm microtubule-associated protein-like 4)
T10 sequence (Q9UM73 with tags, fused parts or gaps L1196M/G1202R): as the sequence (Q9UM73 with tags, fused parts or gaps) above, with L635M, G641R counted along it
In short: as §3

T1 sequence (P08922 1883-2347 G2032R limits assumed): as the sequence (P08922 1883-2347 limits assumed) above, with G150R counted along it

| IC50 [1] [nM] | Ki [2] [nM] | Ki [3] [nM] | IC50 [5] [nM] | IC50 [6] [nM] | Ki [7] [nM] | IC50 [8] [nM] | Ki [9] [nM] | Ki [10] [nM] | IC50 [11] [nM] | SMILES | TPM3-NTRK1-wt/CD74-ROS1-G2032R selectivity ratio [4] | TPM3-NTRK1-wt/CD74-ROS1-wt selectivity ratio [4] | TPM3-NTRK1-wt/EML4-ALK-L1196M-G1202R selectivity ratio [4] | TPM3-NTRK1-wt/EML4-ALK-wt selectivity ratio [4] |
| --- | --- | --- | --- | --- | --- | --- | --- | --- | --- | --- | --- | --- | --- | --- |
| 0.1 to 50 | < 50 | < 50 | 0.1 to 50 | 0.1 to 50 | < 50 | > 500 | 50 to 500 | < 50 | 50 to 500 | CCn1ncc2c1-c1cnc(N)c(c1)O[C@H](C)c1cc(F)ccc1-c1ccnn1C2 [Example 1, (19R)-3-ethyl-16-fluoro-19-methyl-20-oxa-3,4,8,9,23-pentaazapentacyclo[19.3.1.0^2,^6.0^8,^12.0^13,^18]pentacosa-1(24),2(6),4,9,11,13,15,17,21(25),22-decaen-22-amine] | A (bin A for very high selectivity, ratio >30-fold) | A (bin A for very high selectivity, ratio >30-fold) | B (bin B for high selectivity, ratio >10-fold) | A (bin A for very high selectivity, ratio >30-fold) |
| 0.1 to 50 | < 50 | < 50 | 0.1 to 50 | 0.1 to 50 | < 50 | > 500 | 50 to 500 | < 50 | 50 to 500 | CCn1ncc2c1-c1cnc(N)c(c1)O[C@H](C)c1cc(F)ccc1-c1c(C#N)cnn1C2 [Example 3, (19R)-22-amino-3-ethyl-16-fluoro-19-methyl-20-oxa-3,4,8,9,23-pentaazapentacyclo[19.3.1.0^2,^6.08,^12.0^13,^18]pentacosa-1(24),2(6),4,9,11,13,15,17,21(25),22-decaene-11 carbonitrile] | A (bin A for very high selectivity, ratio >30-fold) | A (bin A for very high selectivity, ratio >30-fold) | C (bin C for moderate selectivity, ratio ≥1) | A (bin A for very high selectivity, ratio >30-fold) |
| 0.1 to 50 | < 50 | < 50 | 0.1 to 50 | 0.1 to 50 | < 50 | 50 to 500 | 50 to 500 | < 50 | 50 to 500 | CCn1ncc2c1-c1cnc(N)c(c1)O[C@H](C)c1cc(F)ccc1-c1cc(C)nn1C2 [Example 4, (19R)-3-ethyl-16-fluoro-10,19-dimethyl-20-oxa-3,4,8,9,23-pentaazapentacyclo[19.3.1.0^2,^6.0^8,^12.0^13,^18]pentacosa-1(24),2(6),4,9,11,13,15,1 7,21 (25),22-decaen-22-amine] | A (bin A for very high selectivity, ratio >30-fold) | A (bin A for very high selectivity, ratio >30-fold) | C (bin C for moderate selectivity, ratio ≥1) | B (bin B for high selectivity, ratio >10-fold) |
